The values that follow are results of earlier work, collected in US20150289553A1, “METHOD OF DEVELOPING SAFE AND EFFECTIVE DIETARY SUPPLEMENTS” (priority 2014, published 2015).

Read-outs that look alike come from different tables or passages of the source.

The conditions of series [1]: for Clinically Effective Dosage Range: daily dosage, adults (18+ yrs.); for Dataset 2 Clinical Efficacy: Table 5, multivitamin/mineral for adult U.S. women.
The conditions of series [2]: high intake of supplemental calcium; men.
The conditions of series [3]: calcium supplements; almost 24,000 participants.
Experiment in series [4]: not given
The source holds these as a separate data set.

For series [5] the following is noted: 400 IU every other day for 8 years; 14,641 men.
For series [6] the following is noted: 600 IU every other day; 39,876 women.
The conditions of series [7]: 400 IU/d; 19 trials, 135,967 subjects.
Setting [8] is: adults (18+ yrs.), derived from published literature and regulatory files.
Where [9] appears, read: Table 5, multivitamin/mineral for adult U.S. women.

On to `CC1=CCCC(C)(C)C1/C=C/C(C)=C/C=C/C(C)=C/C=C/C=C(C)/C=C/C=C(C)/C=C/C1=C(C)CCCC1(C)C` (stereo not drawn) [Alpha-Carotene], for which, in series [1], the “Clinically Effective Dosage Range” value is 0.01 to 5 mg. Further, under setting [8], the “Upper Limits, Other Nutrients” value was 8.3 mg.

On to `CC/C=C\C/C=C\C/C=C\CCCCCCCC(=O)O` [Alpha-Linolenic Acid], for which the “Upper Limits, Other Nutrients” value (in vivo) was 25000 mg.

Regarding `CC1=C(/C=C/C(C)=C/C=C/C(C)=C/C=C/C=C(C)/C=C/C=C(C)/C=C/C2=C(C)C(=O)[C@@H](O)CC2(C)C)C(C)(C)C[C@H](O)C1=O` [Astaxanthin], the “Clinically Effective Dosage Range” value in series [1] was 4 to 100 mg. Also, where the note is “in vivo”, the “Upper Limits, Other Nutrients” value is listed as 5.3 mg.

As to `CC1=C(/C=C/C(C)=C/C=C/C(C)=C/C=C/C=C(C)/C=C/C=C(C)/C=C/C2=C(C)CCCC2(C)C)C(C)(C)CCC1` [Beta-Carotene], the “Clinically Effective Dosage Range” value in series [1] is 1 to 180 mg. Moreover, the “Upper Limits, CRN-listed Nutrients” value (adults (18+ yrs.), non-smokers) was 25 mg.

`O=C(O)CCCC[C@@H]1SC[C@@H]2NC(=O)N[C@@H]21` [Biotin]: in series [1], the “Dataset 2 Clinical Efficacy” value is 0.003 to 15 mg and the “Clinically Effective Dosage Range” value is 3-15,000 mcg. Further, the “Dataset 1 Upper Limits” value under setting [9] was 2.5 mg. Further, where the note is “adults (18+ yrs.)”, the “Upper Limits, CRN-listed Nutrients” value is listed as 2,500 mcg.

For the compound `[B]` [Boron], the “Clinically Effective Dosage Range” value in series [1] is 0.2 to 11.6 mg. In addition, for the setting “in vivo”, the “Upper Limits, CRN-listed Nutrients” value is recorded as 6 mg.

In the case of `[Ca+2]` [Calcium], the “risk of cardiovascular disease death” value in series [2] is on record as “associated with an excess risk of cardiovascular disease death”. Moreover, in series [1], the “Dataset 2 Clinical Efficacy” value was 130 to 2000 mg and the “Clinically Effective Dosage Range” value is 130-2,000 mg. In addition, the “Dataset 1 Upper Limits” value under setting [9] is reported as 1500 mg. Besides, for the setting “adults (18+ yrs.)”, the “Upper Limits, CRN-listed Nutrients” value was 1,500 mg. Moreover, the “risk of myocardial infarction” value in series [3] is “raised the risk of myocardial infarction”.

On to `C[N+](C)(C)CCO` [Choline], for which, under setting [8], the “Upper Limits, Other Nutrients” value is 3,500 mg.

As to `[Cr]` [Chromium], in series [1], the “Dataset 2 Clinical Efficacy” value is 0.0035 to 1 mg and the “Clinically Effective Dosage Range” value is recorded as 3.5-1,000 mcg. Also, the “Dataset 1 Upper Limits” value under setting [9] is 1 mg. Besides, under “adults (18+ yrs.)”, the “Upper Limits, CRN-listed Nutrients” value was 1,000 mcg.

As to `[Cu]` [Copper], in series [1], the “Dataset 2 Clinical Efficacy” value was 0.09 to 8 mg and the “Clinically Effective Dosage Range” value was 0.09 to 8 mg. Besides, under “in vivo”, the “Dataset 1 Upper Limits” value is given as 9 mg and the “Upper Limits, CRN-listed Nutrients” value is 9 mg.

On to `Nc1nc2ncc(CNc3ccc(C(=O)N[C@@H](CCC(=O)O)C(=O)O)cc3)nc2c(=O)[nH]1` [Folic Acid], for which the bioavailability result in series [4] (folic acid in supplements versus folic acid in foods (folates)) is “higher bioavailability”. In series [1], the “Dataset 2 Clinical Efficacy” value was 0.04 to 5 mg and the “Clinically Effective Dosage Range” value is 40-5,000 mcg.

For the compound `[Fe]` [Iron], in series [1], the “Dataset 2 Clinical Efficacy” value was 125 to 2000 mg and the “Clinically Effective Dosage Range” value is 1.8 to 120 mg. Moreover, for the setting “in vivo”, the “Dataset 1 Upper Limits” value was 60 mg and the “Upper Limits, CRN-listed Nutrients” value is reported as 60 mg.

`CC1=C[C@H](O)CC(C)(C)[C@H]1/C=C/C(C)=C/C=C/C(C)=C/C=C/C=C(C)/C=C/C=C(C)/C=C/C1=C(C)C[C@@H](O)CC1(C)C` [Lutein]: in series [1], the “Dataset 2 Clinical Efficacy” value is 0.1 to 20 mg and the “Clinically Effective Dosage Range” value was 0.1 to 20 mg. For the same compound, under “in vivo”, the “Dataset 1 Upper Limits” value is reported as 17.6 mg and the “Upper Limits, Other Nutrients” value is reported as 17.6 mg.

For `CC(C)=CCC/C(C)=C/C=C/C(C)=C/C=C/C(C)=C/C=C/C=C(C)/C=C/C=C(C)/C=C/C=C(\C)CCC=C(C)C` [Lycopene], the “Clinically Effective Dosage Range” value in series [1] was 0.2 to 30 mg. For the same compound, the “Upper Limits, Other Nutrients” value under setting [8] is 11.3 mg.

As to `[Mg+2]` [Magnesium], in series [1], the “Dataset 2 Clinical Efficacy” value is 42 to 1200 mg and the “Clinically Effective Dosage Range” value is 42-1,200 mg. The “Dataset 1 Upper Limits” value under setting [9] is 400 mg. Under “adults (18+ yrs.)”, the “Upper Limits, CRN-listed Nutrients” value was 400 mg.

`[Mn+2]` [Manganese]: in series [1], the “Dataset 2 Clinical Efficacy” value was 0.23 to 30 mg and the “Clinically Effective Dosage Range” value is 0.23 to 30 mg. Further, under setting [9], the “Dataset 1 Upper Limits” value is listed as 10 mg. The “Upper Limits, CRN-listed Nutrients” value (adults (18+ yrs.)) is 10 mg.

Turning to `[Mo]` [Molybdenum], in series [1], the “Clinically Effective Dosage Range” value was 0.0045 to 0.467 mg. Further, the “Upper Limits, CRN-listed Nutrients” value (in vivo) is 0.35 mg.

For the compound `NC(=O)c1cccnc1` [Nicotinamide], in series [1], the “Dataset 2 Clinical Efficacy” value is 1.6 to 3000 mg and the “Clinically Effective Dosage Range” value is on record as 1.6-3,000 mg. Further, the “Dataset 1 Upper Limits” value under setting [9] is 1500 mg. Besides, the “Upper Limits, CRN-listed Nutrients” value (adults (18+ yrs.)) was 1,500 mg.

Take `O=C(O)c1cccnc1` [Nicotinic Acid]: in series [1], the “Clinically Effective Dosage Range” value is 1.6-3,000 mg. Further, the “Upper Limits, CRN-listed Nutrients” value (adults (18+ yrs.)) is on record as 250 mg.

On to `[P]` [Phosphorus], for which the “Clinically Effective Dosage Range” value in series [1] is on record as 125-2,000 mg. Also, for the setting “adults (18+ yrs.)”, the “Upper Limits, CRN-listed Nutrients” value is listed as 1,500 mg.

For the compound `[K+]` [Potassium], the “Clinically Effective Dosage Range” value in series [1] was 470-5,000 mg. The “Upper Limits, CRN-listed Nutrients” value (adults (18+ yrs.)) is given as 1,500 mg.

For `[Se]` [Selenium], in series [1], the “Dataset 2 Clinical Efficacy” value is recorded as 5.5-200^ mcg and the “Clinically Effective Dosage Range” value was 0.0055 to 0.2 mg. For the setting “in vivo”, the “Dataset 1 Upper Limits” value was 0.2 mg and the “Upper Limits, CRN-listed Nutrients” value is 0.2 mg.

On to `CC1=C(/C=C/C(C)=C/C=C/C(C)=C/CO)C(C)(C)CCC1` [Vitamin A (retinol and its esters), retinol], for which, in series [1], the “Dataset 2 Clinical Efficacy” value is 0.09 to 3.3 mg and the “Clinically Effective Dosage Range” value is on record as 90-3,300 mcg. In addition, where the note is “in vivo”, the “Dataset 1 Upper Limits” value was 1.5 mg and the “Upper Limits, CRN-listed Nutrients” value is on record as 1,500 mcg.

`Cc1ncc(C[n+]2csc(CCO)c2C)c(N)n1` [Vitamin B1 (thiamin), thiamin]: in series [1], the “Dataset 2 Clinical Efficacy” value was 0.12-1000^ mg and the “Clinically Effective Dosage Range” value is listed as 0.12-1,000 mg. For the same compound, under setting [9], the “Dataset 1 Upper Limits” value is listed as 100 mg. Under “adults (18+ yrs.)”, the “Upper Limits, CRN-listed Nutrients” value is on record as 100 mg.

As to `Cc1ncc(CO)c(CO)c1O` [Vitamin B6 (pyridoxine), pyridoxine], in series [1], the “Dataset 2 Clinical Efficacy” value is 0.17 to 200 mg and the “Clinically Effective Dosage Range” value was 0.17 to 200 mg. For the same compound, under setting [9], the “Dataset 1 Upper Limits” value is given as 100 mg. In addition, the “Upper Limits, CRN-listed Nutrients” value (adults (18+ yrs.)) is reported as 100 mg.

For `O=C1O[C@H]([C@@H](O)CO)C(O)=C1O` [Vitamin C, ascorbic acid], in series [1], the “Dataset 2 Clinical Efficacy” value was 9 to 10000 mg and the “Clinically Effective Dosage Range” value is on record as 9-10,000 mg.

Consider `C=C1CC[C@H](O)C/C1=C/C=C1\CCC[C@]2(C)[C@@H]([C@H](C)CCCC(C)C)CC[C@@H]12` [Vitamin D, cholecalciferol], for which, in series [1], the “Dataset 2 Clinical Efficacy” value is 0.002 to 0.25 mg and the “Clinically Effective Dosage Range” value is 0.002 to 0.25 mg.

As to `Cc1c(C)c2c(c(C)c1O)CC[C@@](C)(CCC[C@H](C)CCC[C@H](C)CCCC(C)C)O2` [Vitamin E, RRR-alpha-tocopherol], the “risk for cardiovascular disease” value in series [5] was “did not reduce the risk”. Also, the “effects on cardiovascular health or cancer prevention” value in series [6] was “no effects”. In series [1], the “Dataset 2 Clinical Efficacy” value was 1.5 to 1342 mg and the “Clinically Effective Dosage Range” value is given as 1.5-1,342 mg. Besides, the mortality entry in series [7] is “increased mortality”. Under setting [9], the “Dataset 1 Upper Limits” value was 1000 mg. The “UL (Upper Limit)” value (healthy US adults, Embodiment 1) is 1,000 mg.

As for `CC1=C(/C=C/C(C)=C/C=C/C(C)=C/C=C/C=C(C)/C=C/C=C(C)/C=C/C2=C(C)C[C@@H](O)CC2(C)C)C(C)(C)C[C@H](O)C1` [Zeaxanthin], the “Clinically Effective Dosage Range” value in series [1] is 0.01 to 10 mg. The “Upper Limits, Other Nutrients” value (in vivo) is listed as 10 mg.

As for `[O-2].[Zn+2]` [Zinc], in series [1], the “Dataset 2 Clinical Efficacy” value was 1.1 to 80 mg and the “Clinically Effective Dosage Range” value is 1.1 to 80 mg. Further, the “Dataset 1 Upper Limits” value under setting [9] was 30 mg. For the same compound, the “Upper Limits, CRN-listed Nutrients” value (adults (18+ yrs.)) is on record as 30 mg.

As to `[O]=[Mg]` [magnesium oxide], in series [4] (versus most organic magnesium salts or chelates (citrate, malate, glycinate)), the bioavailability result was “lower bioavailability”.

Consider Vitamin K, for which the “Clinically Effective Dosage Range” value in series [1] is given as 12-1,000 mcg. Further, under “in vivo”, the “Upper Limits, CRN-listed Nutrients” value is reported as 10 mg.

Consider cyanocobalamin [Vitamin B12], for which, in series [1], the “Dataset 2 Clinical Efficacy” value is listed as 0.24-2500^ mcg and the “Clinically Effective Dosage Range” value is reported as 0.24-2,500 mcg. For the setting “in vivo”, the “Dataset 1 Upper Limits” value was 3 mg and the “Upper Limits, CRN-listed Nutrients” value was 3,000 mcg.
